Reference: patent US20060134008A1, “Compositions and methods for pulmonary conditions” (priority 2004, published 2006)

Tests used:
[1] = tested on: guinea pigs immunized against ovalbumin
guinea pigs [2] = test: Methacholine-induced bronchoconstriction (PenH), methacholine 20-30 minutes after isoflurane anesthesia and airway instillation; conditions: for block of methacholine and lidocaine induced bronchoconstriction (PenH): instilled with lidocaine, methacholine within 20-30 minutes of terminating anesthesia, FIG. 4; for PenH after methacholine by nebulization: methacholine 20-30 minutes following treatment, 200-300 μL instilled
Protocol: Guinea pigs were anesthetized with isoflurane and one of the following treatments instilled into the airway using a Penn Century device designed for liquid instillation: a) saline; b) lidocaine; c) IpBr or d) lidocaine and IpBr. The volume of liquid instilled was between 200-300 μL for each treatment group. Between 20 and 30 minutes following treatment all animals received methacholine by nebulization.

guinea pigs [3] = test: Methacholine-induced bronchoconstriction (PenH), methacholine approximately 10-15 minutes after isoflurane anesthesia and treatment; conditions: FIG. 5
Protocol: A second study was conducted to evaluate the ability of IpBr and epinephrine to reduce lidocaine/methacholine induced bronchoconstriction earlier relative to the termination of isoflurane. […] Guinea pigs were anesthetized with isoflurane and treated with: a) saline; b) lidocaine; c) lidocaine plus epinephrine; or d) lidocaine plus IpBr. Approximately 10-15 minutes later each guinea pig was exposed to methacholine by nebulization.

[4] = in average [70-kg] adult; cited from earlier work
[5] = given with lidocaine, methacholine approximately 10-15 minutes later

| SMILES | block of methacholine and lidocaine induced bronchoconstriction (PenH) (guinea pigs [2]) | PenH after methacholine by nebulization (guinea pigs [2]; FIG. 3) | effect on PenH (in words) (guinea pigs [3]; [5]) | Maximum one-time dose (volume) [4] | also measured |
| --- | --- | --- | --- | --- | --- |
| CC(C)[N+]1(C)[C@@H]2CC[C@H]1CC(OC(=O)C(CO)c1ccccc1)C2.[Br-] (stereo partly shown) [IpBr, ipratropium bromide] | blocks methacholine-induced bronchoconstriction out to 30 minutes of treatment | effective in blocking methacholine induced bronchoconstriction | greatly reduce PenH back to baseline levels | – | effect of concomitant administration on lidocaine-induced increase in PenH ([1]; co-administered with lidocaine, FIG. 2, PenH similar to saline only): blocked the effect of lidocaine on PenH; reduction of PenH relative to animals receiving only lidocaine (guinea pigs [3]; [5]): approximately 90% |
| Cc1cccc(C)c1NC(=O)C1CCCCN1C (stereo not shown) [Mepivacaine] | – | – | – | (30 mL in average [70-kg] adult) | – |
| CCN(CC)CC(=O)Nc1c(C)cccc1C [Lidocaine, lidocaine] | no differences in PenH | increase PenH relative to guinea pigs receiving only saline | – | (30 mL in average [70-kg] adult) | magnitude of the lidocaine-induced PenH increase ([1]; 1.25 or 2.5 mg instilled, FIG. 1): dose-dependent; effect on the bronchoconstrictive action of methacholine (guinea pigs [2]; 15 and 30 minutes following termination of isoflurane anesthesia): enhanced the bronchoconstrictive action of methacholine; PenH relative to baseline (guinea pigs [3]; methacholine approximately 10-15 minutes after treatment): increase in PenH over baseline |
| CCCCN1CCCCC1C(=O)Nc1c(C)cccc1C (stereo not shown) [Bupivacaine] | – | – | – | (50 mL in average [70-kg] adult) | – |
| FC(F)OC(Cl)C(F)(F)F (stereo not shown) [isoflurane] | – | – | – | – | time for which the bronchoconstrictive effects of methacholine are reduced (guinea pigs [2]; inhaled anesthetic, FIG. 3): 20 to 30 min |
| CNC[C@H](O)c1ccc(O)c(O)c1 [epinephrine] | but not epinephrine, blocks methacholine-induced bronchoconstriction | – | reduced PenH to levels similar to those observed in saline treated animals | – | – |
